Laboratory results reported in patent publication US11484512B2, “Nanoparticles formed of a polymer and terbinafine” (Blueberry Therapeutics Limited, priority 2017, dated 2022).
In brackets after ≈: the same amount, converted by molar mass. Like-named read-outs stand apart in the source and are kept apart here.

Key:
[1] = test system: Trichophyron terestre; details: 1 strain tested; cited from earlier work
[2] = test system: Trichophron mentagrophytes; details: cited from earlier work
[3] = test system: T. mentagrophytes; test: Trychophyton mentagrophytes anti-fungal paper disc lawn assay; assay type: cell-based; details: 5 days incubation
Experimental: FIGS. 6A-6E are photographic images of yeast extract peptone dextrose (YEPD) agar plates with Trychophyton mentagrophytes after incubation for 4 days at 30° C. […] 40 μl of double distilled water or terbinafine solution of varying concentration was spotted onto each paper disc. The concentration of the terbinafine solutions used were: 0 μg/ml (control, FIG. 6A), 0.06 μg/ml (FIG. 6B), 0.6 μg/ml (FIG. 6C), 6.00 μg/ml (FIG. 6D) and 60.0 μg/ml (FIG. 6E); FIGS. 7A and 7B are photographic images of YEPD plates assessing the efficacy of BB2603 (terbinafine and PHMB nanoparticles) and terbinafine samples passing through healthy human nail against Trychophyton mentagrophytes A lawn of Trychophyton mentagrophytes was spread onto YEPD agar plates supplemented with 50 μg/ml chloramphenicol. The aqueous samples from the Franz cell collection chamber following 7 days treatment of healthy human nails with either 0.1 mg/ml terbinafine (FIG. 7A) or BB2603 (FIG. 7B) were spotted onto 10 mm paper discs. The discs were placed in the middle of the Trychophyton plates, which were then incubated at 30° C. for 5 days to allow the fungi to grow. […]

[4] = test system: Trichophron verrucosum; details: 17 strains tested; cited from earlier work
[5] = test system: onychomycosis; details: following 3-6 months of dosing, oral; cited from earlier work
[6] = test system: Microsporum species; details: 25 strains tested; cited from earlier work
[7] = test system: Epidermophyton floccosum; details: 42 strains tested; cited from earlier work
[8] = test system: Trichophyton rubrum; details: 72 strains tested; cited from earlier work
[9] = cited from earlier work
[10] = test system: Trichophyton species; details: 27 strains tested; cited from earlier work
[11] = Franz cell nail penetration, single dose (constant exposure); assay type: in vitro ADME, human
Experimental: Nail clippings were soaked in water overnight at 30° C. and dried briefly. A 3 mm diameter punch was used to take disc biopsies of the nail clippings. Each nail disc was added to a Franz cell and an upper chamber of the cell attached. 40 μl of the following formulations was added to the upper chambers: 0.3 mg/ml PHMB+0.1 mg/ml terbinafine; or 10 mg/ml terbinafine. Lower collection chambers of the Franz cells were filled with water (approximately 600 μl) and the hole in the base of the sample chamber also filled with ddH2O to prevent bubbles forming beneath the nail. The upper sample chamber was carefully placed into the collection chamber ensuring not to introduce any air bubbles. Excess liquid from the collection chamber was expelled at this point leaving a final volume of liquid in the lower chamber of 500 μl. […] The nail discs from the Franz cell were also analysed for the presence of terbinafine as follows: the remaining test sample was removed from the upper sample chamber and discarded and the sample chamber washed 5 times with 100 μl ddH2O, with each wash being discarded, in order to remove any residual test solution remaining in the sample chamber. […] After 7 days, samples from the underside of the nail (ethanol washes) were collected and analysed by LC-MS/MS. […] Levels of terbinafine were quantified against drug standards. […]

[12] = test system: Microsporum canis; details: 49 strains tested; cited from earlier work
[13] = test system: Trichophyton interdigitale; details: 11 strains tested; cited from earlier work

**Q.** With CN(C/C=C/C#CC(C)(C)C)Cc1cccc2ccccc12 [terbinafine] as the compound, how does the MIC range [1] read?
**A.** 2 ng/mL (≈ 6.86 nM)

**Q.** What about the MIC range ([2]; 32 strains tested) of the same compound?
**A.** 1 to 6 ng/mL

**Q.** And the “previously reported MIC” value ([2]; liquid MIC assay)?
**A.** 6 ng/mL

**Q.** What about the MIC ([3]; Trichophyton mentagrophytes, 120 h, 30° C.) of the same compound?
**A.** 600 ng/mL (≈ 2060 nM)

**Q.** What about the “zone of clearance with Franz cell aqueous sample passed through nail” value ([3]; collection chamber sample after 7 days nail treatment) of the same compound?
**A.** no effect

**Q.** What about the MIC range [4] of the same compound?
**A.** 1 to 6 ng/mL

**Q.** What about the cure [5] of the same compound?
**A.** > 80%

**Q.** And the MIC range [6]?
**A.** 2 to 70 ng/mL

**Q.** What about the MIC range [7] of the same compound?
**A.** 1 to 47 ng/mL

**Q.** What about the MIC range [8] of the same compound?
**A.** 1 to 38 ng/mL

**Q.** And the “concentration in nails following oral dosing” value ([9]; after 3 weeks)?
**A.** about 0.25 μg/g

**Q.** What about the “concentration in nails following oral dosing” value ([9]; after 18 months) of the same compound?
**A.** 0.55 µg/g

**Q.** And the “concentration in nails following oral dosing” value ([9]; after 7 days treatment)?
**A.** 0.1 µg/g

**Q.** And the MIC range [10]?
**A.** ≤60 ng/mL

**Q.** What about the “concentration of terbinafine in ethanol washes of the underside of the nail” value ([11]; 0.1 mg/ml, 30% (v/v) ethanol, 7 days, single dose, BB2603 value is median) of the same compound?
**A.** < 0.1 ng/mL

**Q.** And the “median concentration of drug in dissolved nails” value ([11]; after 7 days, FIGS. 4 and 5A-5B)?
**A.** approximately 0.5 mg/g

**Q.** And the MIC range [12]?
**A.** 6 to 80 ng/mL

**Q.** What about the MIC range [13] of the same compound?
**A.** 2 to 28 ng/mL
